From patent publication US6020373A, “Chelate derivatives as protectors against tissue injury” (Eastern Virginia Medical School, priority 1997, dated 2000)
“Also recorded” adds a separate entry of the source.

Experiments:
[1] = system: radiation damage of right hind leg; test: Radioprotection in mice: radiation damage scores of the irradiated right hind leg; details: for Av score (average radiation damage score, day 15-20): 6 mice per group; for effectiveness as radioprotectant: IP, mice, limb irradiation 30-40 Gy; for Av Score (average radiation damage score, day 12-24): 30 Gy to right limb, 12 mice per group, IP mmole/kg: IDA 16.7, EDTA 8.6, MPEG 17.9, MIDA 10.3, MPEDTA 7.7, saline 1.54
Method: The effect of PEG derivatives on tissue tolerance to radiation was tested. Groups of 6 or 12 female Swiss-Webster mice were given IP solutions of the derivatives at a dose of approxfimately one-half of the LD50. Ten minutes later, pentobarbital (PB) 0.262 mmole/kg was given IP, and twenty minutes after the first injection, the right hind leg only was irradiated with 30, 35 or 40 Gy using the Philips RT-250 unit operated under the following conditions: 200 kVp, 20 mA, 0.2 mm Cu added filtration, HVL 0.57 mm Cu, dose rate of 1.834 Gy/min. Mice were irradiated in groups of 6 or 12, and their legs were arranged within a 20×24 cm aperture cone at a 50 cm target-to-skin distance such that all their legs were within a 95% isodose. The output of the X-ray unit was calibrated using a Capintec PT-06C Farmer chamber. Controls received only PB and 0.4 ml normal saline in place of the drug.
The mice were examed daily by two independent observers for 24 days, and the limbs were scored for radiation damage graded on a scale of 0 to 3.5 according to criteria previously established (Fowler, et al., Int. J. Rad. Biol., 9:241-252, 1964). Briefly, a score of 1 corresponds to definite reddening of the foot compared to normal and a score of 2 is marked moist desquamation, loss of hair and skin, and sticking together of toes.

[2] = in vivo; details: mouse, in vivo, ip
Method: (§1) For all biological studies, the substances were dissolved in water and brought to pH 7. […] Preliminary determination of the approximate toxicity level of the substances was by intraperitoneal (IP) injection of increasing doses into individual Swiss-Webster female mice until toxicity was evident. The maximum tolerated dose was the highest dose given without evident toxic symptoms such as coma, convulsions, or death. The LD 50 (IP) was determined by using at least three doses in 12 mice at each level, bracketing the approximate LD 50. The mice were followed for at least one week and examined for weight changes, general condition, and behavior. The LD 50 with lower and upper confidene iits was calculated from the data.

[3] = system: blood urea nitrogen levels (BUN); test: Effect on renal toxicity of doxorubicin (blood urea nitrogen); details: 27 days, FIG. 3; for prevention of doxorubicin-induced BUN increase: 7 mmole/kg IP one hour before 25 mg/kg doxorubicin into tail vein
[4] = system: tissue injury, such as myocardial ischemia-reperfusion injury; details: in vivo; cited from earlier work
[5] = in vivo; cited from earlier work
[6] = system: B16F1 malignant melanoma; test: Effect on doxorubicin-caused tumor growth lag; format: in vivo, C57Bl/6 mice; details: IP 30 minutes before doxorubicin 15 mg/kg IP; FIG. 4
Method: For this assay, the B16F1 malignant melanoma which grows in isologous C57Bl/6 mice was used. […] When the tumors reached an average of 6-8 mm diameter, they were placed in closely matched groups of 12 with similar average size tumors. The groups were injected intraperitoneally with either saline or MPEDTA, followed 30 minutes later by doxorubicin 15 mg/kg IP or saline. Tumor volumes were assessed by daily caliper measreients m two orthogonal planes. Tumor length is defined as the diameter in the plane parallel to the body, while width is defined as the diameter perpendicular to the body. Diameter product (in mm^2) was used as the index of tumor growth. The tumor areas were averaged and plotted vs. time to show growth delay as a function of the various treatments. When the average area reached […], the mice were killed by cervical dislocation. The results are in FIG. 4. The solid circles indicate the groups receiving saline-saline or MPEDTA-saline, the solid squares indicate the group receiving saline-doxorubicin, and the solid triangles indicate the group receiving MPEDTA-doxorubicin.

[7] = system: Mice; test: in vivo; details: IP, mice; for LD50: 12 mice at each level, LL and UL confidence limits in own columns; for MTD (maximum tolerated dose): highest dose without evident toxic symptoms such as coma, convulsions, or death
Method: as §1

[8] = 40 Gy, IP mmole/kg: EDTAE, DTPA ester, MPDTE 1.0, MPEDTAE 2.0, MPEDTA 8.0, saline 2.93
[9] = 35 Gy, IP mmole/kg: EDTA, DTPA, MPEDTA, MPDTP 8.0, EDTAE 1.0, MPEDTAE, MPDTE 2.0, saline 2.36

COC(=O)CN(CCN(CC(=O)OC)CC(=O)OC)CCN(CC(=O)OC)CC(=O)OC [DTPA methyl ester]
Av score (average radiation damage score, day 15-20) [1, 8]: 2.50
effectiveness as radioprotectant [1]: not effective
MTD [2]: 1000 µmol/kg

O=C(O)CN(CCN(CC(=O)O)CC(=O)O)CCN(CC(=O)O)CC(=O)O [DTPA, diethylene triamine pentaacetic acid]
Av score (average radiation damage score, day 15-20) [1, 9]: 1.34
effectiveness as radioprotectant [1]: slightly effective; also recorded: moderately effective
MTD [2]: 8000 µmol/kg

COc1cccc2c1C(=O)c1c(O)c3c(c(O)c1C2=O)C[C@@](O)(C(=O)CO)C[C@@H]3O[C@H]1C[C@H](N)[C@H](O)[C@H](C)O1 [Doxorubicin, doxorubicin]
BUN compared with the untreated control group ([3]; 25 mg/kg doxorubicin into tail vein): markedly increased BUN

O=C(O)CN(CCN(CC(=O)O)CC(=O)O)CC(=O)O [EDTA, ethylene-diamine tetraacetic acid]
prevention of doxorubicin-induced BUN increase [3]: not
MTD [2]: 8000 µmol/kg

O=C(O)CNCC(=O)O [IDA, iminodiacetate]
Av Score (average radiation damage score, day 12-24) [1]: 1.19
LD50 [2]: 33100 µmol/kg
MTD [2]: 17000 µmol/kg

CC(=O)N(O)CCCCCNC(=O)CCC(=O)N(O)CCCCCNC(=O)CCC(=O)N(O)CCCCCN [deferoxamine (DEF), deferoxamine]
effectiveness in reducing tissue injury [4]: some effectiveness in reducing tissue injury
excretion / circulation lifetime [5]: rapid excretion

Methoxypolyethlene Glycol Amide with EDTA [MPEDTA]
prevention of doxorubicin-induced BUN increase [3]: completely prevented
effect on tumoricidal effect of / tumor growth lag produced by doxorubicin [6]: clearly did not interfere with the tumoricidal effect of doxorubicin; also recorded: lack of effect
Av Score (average radiation damage score, day 12-24) [1]: 0.24
Av score (average radiation damage score, day 15-20) [1, 9]: 1.50
Av score (average radiation damage score, day 15-20) [1, 8]: 1.67
effectiveness as radioprotectant [1]: extremely effective; also recorded: very effective in reducing or preventing damage from radiation or doxorubicin
LD50 [7]: 12.5 mmol/kg
MTD (maximum tolerated dose) [7]: 8 mmol/kg

Methoxypolyethyene Glycol Amide with DTPA. Calcium Sodium Salt [MPDTP]
Av score (average radiation damage score, day 15-20) [1, 9]: 1.21

Methoxypolyethylene Glycol Iminodiacetate [MIDA]
Av Score (average radiation damage score, day 12-24) [1]: 0.67
effectiveness as radioprotectant [1]: moderately effective
ANOVA comparison of average scores between groups ([1]; average radiation damage scores, Tables II and III): little difference
LD50 [7]: 20.6 mmol/kg
MTD (maximum tolerated dose) [7]: 8 mmol/kg

Metyl Ester of MPEDTA [MPEDTAE]
Av score (average radiation damage score, day 15-20) [1, 9]: 0.88
Av score (average radiation damage score, day 15-20) [1, 8]: 1.45
effectiveness as radioprotectant [1]: also effective in protection from tissue injury
